Assay results reported in patent US6169181A, “Compounds useful to treat retroviral infections” (Pharmacia & Upjohn Company, priority 1998, dated 2001).
Where “and” joins values, the source holds several entries; their conditions need not be identical. Equal entries are not always repeated. Where two headings read alike, the source gives them in different places.

What was measured:
HIV-1 protease = HIV-1 protease (Human immunodeficiency virus type 1 group M subtype B, UniProt P04585); test: biochemical
Outline: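 A substrate biotinylated at the N-terminal arginine and FITC-labelled at the C-terminal lysine was incubated with HIV-1 protease (10 μl of 0.1 μM) and compound for 1 h in the dark at room temperature. Buffer was 0.1 M sodium acetate pH 5.5, 1.0 M NaCl, 0.05% NP-40. Labelled product was separated from substrate using streptavidin beads and filtration, and the fluorescence gave percent inhibition.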

[1] = target: T1, single chain tethered (tandem) HIV protease (HIV-1 M:B_HXB2R, UniProt P04585); test: Tandem HIV protease assay; type: biochemical; settings: Table II, enzyme HIV1TANDEM; for Ki: read-out: FITC KI
T1 construct: purified enzyme, FITC/biotin substrate assay
Protocol: In the enzyme inhibition assay described above, the sensitivity of Ki value determination is in part limited by the ability to continue to lower the enzyme concentration for compounds with high binding affinity. To prevent de-dimerization at low enzyme concentration, a tandemly linked enzyme is prepared in which the two monomers are covalently linked by an appropriate stretch of amino acid residues. Using the latter enzyme, the sensitivity of the inhibition assay is improved since much lower enzyme concentration can be utilized, as compared to the condition using the wild-type enzyme.
The starting inhibitor concentrations are determined based on preliminary enzyme inhibition screening results which estimate the expected potency of the inhibitor. Inhibitor concentrations are then prepared using the Biomek 1000 (Beckman) and the Quadra 96 (Tomtec). Substrate (biotinylated at the amino terminal arginine and fluorescently labeled with fluorescein at the carboxyl terminal lysine), inhibitor and the tandem enzyme are allowed to react in solution at pH 5.5 (buffers identical to those used with the native dimeric enzyme) in the dark for 96 hours. Streptavidin coated polystyrene beads are added to stop the reaction. The labeled cleavage product is separated from unreacted substrate via filtration. Residual fluorescence is quantitated with the Idexx SM2000 (Idexx) and the resulting data are analyzed using the NLLSF program.

[2] = Table II, enzyme HIV-1, DOSE 0.123 (unit not given)
[3] = Table II, enzyme HIV-1, DOSE 0.370 (unit not given)
[4] = Table II, enzyme HIV-1, DOSE 1.100 (unit not given)
[5] = Table II, enzyme HIV-1, DOSE 3.300 (unit not given)
[6] = Table II, enzyme HIV-1, DOSE 10.000 (unit not given)
[7] = Table II, enzyme HIV-1, DOSE 30.000 (unit not given)

SMILES	PROTEASE % INHIB. (HIV-1 protease; [2]) [%]	PROTEASE % INHIB. (HIV-1 protease; [3]) [%]	PROTEASE % INHIB. (HIV-1 protease; [4]) [%]	PROTEASE % INHIB. (HIV-1 protease; [5]) [%]	PROTEASE % INHIB. (HIV-1 protease; [6]) [%]	PROTEASE % INHIB. (HIV-1 protease; [7]) [%]	Ki [1] [nM]	PROTEASE % INHIB. (HIV-1 protease)	PROTEASE % INHIB. ([1]; DOSE 0.123 (unit not given)) [%]	PROTEASE % INHIB. ([1]; DOSE 0.370 (unit not given)) [%]	PROTEASE % INHIB. ([1]; DOSE 1.100 (unit not given)) [%]	PROTEASE % INHIB. ([1]; DOSE 3.300 (unit not given)) [%]	PROTEASE % INHIB. ([1]; DOSE 10.000 (unit not given)) [%]	PROTEASE % INHIB. ([1]; DOSE 30.000 (unit not given)) [%]
CCCC1(CCC)CC(O)=C(C(c2cccc(NS(=O)(=O)c3cn(C)cn3)c2)C(C)(C)C)C(=O)O1 (single isomer, unassigned) [Example 318, N-[3(R or S)-(1-[5,6-Dihydro-6,6-dipropyl-4-hydroxy-2-oxo-2H-pyran-3-yl]-2,2-dimethylpropyl)-phenyl]-1-methyl-1H-imidazole-4-sulfonamide]	98.06	106.35	101.88	88.73	94.49	82.83	0.019							
CCCC1(CCC)CC(O)=C(C(CC)c2cccc(NS(=O)(=O)c3ccc(C(N)=O)cn3)c2)C(=O)O1 (stereo not shown) [Example 334, N-[3-{1-(4-Hydroxy-5,6-dihydro-2-oxo-6,6-dipropyl-2H-pyran-3-yl)propyl}phenyl]-5-carbamoylpyridine-2-sulfonamide]	93.49	90.25	94.57	102.47	97.61	96.3	0.45							
CCC(C1=C(O)CC(CCc2ccccc2)(CCc2ccccc2)OC1=O)c1cccc(NS(=O)(=O)c2cn(C)cn2)c1 (stereo not shown) [Example 330, N-[3-{1-(4-Hydroxy-5,6-dihydro-2-oxo-6,6-bis(2-phenylethyl)-2H-pyran-3-yl)propyl}phenyl]-1-methyl-1H-imidazole-4-sulfonamide]	93.74	94.32	93.66	85.63	87.9	69.82	0.524							
CCC[C@@]1(CCc2ccccc2)CC(O)=C([C@H](CC)c2cccc(NS(=O)(=O)c3ccc(C#N)cn3)c2)C(=O)O1 (single isomer, unassigned) [Example 335, N-[3-{1(R or S)-(4-Hydroxy-5,6-dihydro-2-oxo-6(R or S)-phenethyl-6-propyl-2H-pyran-3-yl)propyl}phenyl]-5-cyanopyridine-2-sulfonamide]							0.04	60.07 and 99.75 and 97.05 and 92.06 and 89.77 and 76.25						
CCC[C@]1(CCc2ccccc2)CC(O)=C([C@H](CC)c2cccc(NS(=O)(=O)c3cn(C)cn3)c2)C(=O)O1 (single isomer, unassigned) [Example 340, N-[3-{1(R or S)-(4-Hydroxy-5,6-dihydro-2-oxo-6(S or R)-phenethyl-6-propyl-2H-pyran-3-yl)propyl}phenyl]-1-methyl-1H-imidazole-4-sulfonamide]							0.06	80.58 and 90.49 and 90.16 and 91.57 and 89.49 and 71.99						
CCCC1(CCC)CC(O)=C(C(CC)c2cccc(NS(=O)(=O)c3ccc(C(F)(F)F)cn3)c2)C(=O)O1 (stereo not shown) [Example 280, 5-Trifluoromethyl-N-[3-[1-[4-hydroxy-2-oxo-6,6-di-n-propyl-5,6-dihydro-2H-pyran-3-yl]-propyl]-phenyl]-2-pyridinesulfonamide]	95.28	94.98	93.01	86.69	78.64	76.85	0.1							
CC(C)CC1(CC(C)C)CC(O)=C(C(c2cccc(NS(=O)(=O)c3cn(C)cn3)c2)C(C)(C)C)C(=O)O1 (racemic) [Example 305, N-[3-(1-[5,6-Dihydro-6,6-diisobutyl-4-hydroxy-2-oxo-2H-pyran-3-yl]-2,2-dimethylpropyl)-phenyl]-1-methyl-1H-imidazole-4-sulfonamide]	99.99	110.76	114.35	110.88	102.01	57.83	0.4							
CCC[C@@]1(CCc2ccc(F)cc2)CC(O)=C([C@H](c2cccc(NS(=O)(=O)c3ccc(C#N)cn3)c2)C(C)(C)C)C(=O)O1 (single isomer, unassigned) [Example 347, N-[3-{1(S or R)-(4-Hydroxy-5,6-dihydro-2-oxo-6(R or S)-(2-(4-fluorophenyl)ethyl)-6-propyl-2H-pyran-3-yl)-2,2-dimethyl-propyl}phenyl]-5-cyanopyridine-2-sulfonamide]	20.99	50.82	71.4	83	90.97	87.18	13.6							
CCC[C@]1(CCc2ccccc2)CC(O)=C([C@H](CC)c2cccc(NS(=O)(=O)c3ccc(C#N)cn3)c2)C(=O)O1 (single isomer, unassigned) [Example 336, N-[3-{1(R or S)-(4-Hydroxy-5,6-dihydro-2-oxo-6(S or R)-phenethyl-6-propyl-2H-pyran-3-yl)propyl}phenyl]-5-cyanopyridine-2-sulfonamide]							0.032	65.64 and 112 and 89.54 and 88.06 and 77.12 and 62.28						
CCCC1(CCC)CC(O)=C(C(c2cccc(NS(=O)(=O)c3ccc(C(F)(F)F)cn3)c2)C(C)(C)C)C(=O)O1 (single isomer, unassigned) [Example 286, 5-Trifluoromethyl-N-[3-(R or S)-[1-[4-hydroxy-2-oxo-6,6-di-n-propyl-5,6-dihydro-2H-pyran-3-yl]-2,2-dimethylpropyl]-phenyl]1-2-pyridinesulfonamide]	34.76	68.74	89.29	93.11	108.17	95.31	13.3							
CCCC1(CCc2ccccc2)CC(O)=C([C@@H](CC)c2cccc(NS(=O)(=O)c3ccc(C(F)(F)F)cn3)c2)C(=O)O1 (stereo partly drawn) [Example 374, N-[3-[1-(S)-[5,6,-Dihydro-4-hydroxy-2-oxo-6-(2-phenylethyl)-6-propyl-2H-pyran-3-yl]propyl]phenyl]-5-(triflouromethyl)-2-pyridinesulfonamide]							0.031		78.97	82.14	84.98	87.70	95.25	80.11
CCC[C@@]1(CCc2ccc(F)cc2)CC(O)=C([C@H](CC)c2cccc(NS(=O)(=O)c3ccc(C#N)cn3)c2)C(=O)O1 (single isomer, unassigned) [Example 365, N-[3-{1(R or S)-(4-Hydroxy-5,6-dihydro-2-oxo-6(R or S)-(2-(4-fluorophenyl)ethyl)-6-propyl-2H-pyran-3-yl)propyl}phenyl]-5-cyanopyridine-2-sulfonamide]							0.023							
CC(C)(C)C(C1=C(O)CC(CCc2ccccc2)(CCc2ccccc2)OC1=O)c1cccc(NS(=O)(=O)c2ccc(C#N)cn2)c1 (single isomer, unassigned) [Example 359, N-[3-{1(R or S)-(4-Hydroxy-5,6-dihydro-2-oxo-6,6-bis(2-phenylethyl)-2H-pyran-3-yl)-2,2-dimethylpropyl}phenyl]-5-cyanopyridine-2-sulfonamide]							16.4							
